Laboratory results as given in article PMC6331819, “Identification of N-Acetyldopamine Dimers from the Dung Beetle Catharsius molossus and Their COX-1 and COX-2 Inhibitory Activities” (Molecules, 2015).

What was measured:
COX-1 = biological target: T1, COX-1 (Ovis aries, UniProt P05979); test: Cayman COX Fluorescent Inhibitor Screening Assay Kit; format: biochemical
T1 construct: gene PTGS1

COX-2 = biological target: T2, COX-2 (Homo sapiens, UniProt P35354); test: as above; format: biochemical
T2 construct: gene PTGS2
T2 sequence (P35354 18-604): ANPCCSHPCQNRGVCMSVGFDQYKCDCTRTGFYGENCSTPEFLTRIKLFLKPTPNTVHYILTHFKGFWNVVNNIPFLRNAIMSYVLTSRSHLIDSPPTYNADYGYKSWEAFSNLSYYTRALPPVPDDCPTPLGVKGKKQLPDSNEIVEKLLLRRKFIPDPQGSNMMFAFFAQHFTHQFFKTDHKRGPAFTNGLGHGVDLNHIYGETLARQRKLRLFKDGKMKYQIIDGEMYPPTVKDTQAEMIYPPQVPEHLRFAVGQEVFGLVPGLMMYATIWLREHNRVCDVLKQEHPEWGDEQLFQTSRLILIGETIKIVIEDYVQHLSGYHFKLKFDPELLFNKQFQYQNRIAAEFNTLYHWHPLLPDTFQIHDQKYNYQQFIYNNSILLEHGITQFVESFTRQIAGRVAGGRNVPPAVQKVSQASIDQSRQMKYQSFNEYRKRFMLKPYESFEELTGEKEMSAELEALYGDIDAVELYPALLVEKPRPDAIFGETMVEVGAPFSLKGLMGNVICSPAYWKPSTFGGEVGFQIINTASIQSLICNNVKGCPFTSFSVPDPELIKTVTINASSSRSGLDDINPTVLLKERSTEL

T1 sequence (P05979 25-600): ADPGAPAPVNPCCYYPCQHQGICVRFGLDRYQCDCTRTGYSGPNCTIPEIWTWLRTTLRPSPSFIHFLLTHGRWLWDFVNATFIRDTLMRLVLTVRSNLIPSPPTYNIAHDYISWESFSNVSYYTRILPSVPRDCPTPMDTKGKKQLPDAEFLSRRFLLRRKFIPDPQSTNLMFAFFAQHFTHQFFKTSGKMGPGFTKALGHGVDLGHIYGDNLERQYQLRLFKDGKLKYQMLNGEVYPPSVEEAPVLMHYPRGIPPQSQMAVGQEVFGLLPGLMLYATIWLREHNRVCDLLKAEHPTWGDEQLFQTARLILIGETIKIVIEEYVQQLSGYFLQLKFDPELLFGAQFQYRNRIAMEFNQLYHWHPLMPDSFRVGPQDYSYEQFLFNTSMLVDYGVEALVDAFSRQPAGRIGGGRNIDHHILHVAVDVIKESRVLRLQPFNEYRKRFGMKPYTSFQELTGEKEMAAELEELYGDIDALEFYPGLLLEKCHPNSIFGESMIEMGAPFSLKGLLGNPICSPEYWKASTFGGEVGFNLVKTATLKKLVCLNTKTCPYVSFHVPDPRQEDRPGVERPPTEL

- IC50 (COX-1): 78.8 µM
- IC50 (COX-2): 6.43 µM
SMILES: CC(=O)N/C=C/c1ccc2c(c1)O[C@H](c1ccc(O)c(O)c1)[C@H](NC(C)=O)O2 (racemic) [compound 4, cis-2-(3′,4′-dihydroxyphenyl)-3-acetylamino-7-(N-acetyl-2″-amino-ethylene)-1,4-benzodioxane]
